Results: the NIST ThermoML archive (doi:10.1016/j.tca.2013.05.023)
± gives the expanded uncertainty stated by the source.

What was measured:
[1] = xn = mol fraction of the nth substance listed; details: 101 kPa, Liquid, Alternating current cell with electrodes, x1 = 0.3333
[2] = molar heat capacity at constant pressure; xn = mol fraction of the nth substance listed; details: 101 kPa, Liquid, Small sample (50 mg) DSC, x1 = 0.3333

| SMILES | electrical conductivity ([1]; 298.15 K) [S/m] | electrical conductivity ([1]; 303.15 K) [S/m] | electrical conductivity ([1]; 308.15 K) [S/m] | electrical conductivity ([1]; 313.15 K) [S/m] | electrical conductivity ([1]; 318.15 K) [S/m] | electrical conductivity ([1]; 323.15 K) [S/m] | electrical conductivity ([1]; 328.15 K) [S/m] | electrical conductivity ([1]; 333.15 K) [S/m] | electrical conductivity ([1]; 338.15 K) [S/m] | electrical conductivity ([1]; 343.15 K) [S/m] | molar heat capacity at constant pressure ([2]; 303.15 K) [J/K/mol] | molar heat capacity at constant pressure ([2]; 308.15 K) [J/K/mol] | molar heat capacity at constant pressure ([2]; 313.15 K) [J/K/mol] | molar heat capacity at constant pressure ([2]; 318.15 K) [J/K/mol] | molar heat capacity at constant pressure ([2]; 323.15 K) [J/K/mol] | molar heat capacity at constant pressure ([2]; 328.15 K) [J/K/mol] | molar heat capacity at constant pressure ([2]; 333.15 K) [J/K/mol] | molar heat capacity at constant pressure ([2]; 338.15 K) [J/K/mol] | molar heat capacity at constant pressure ([2]; 343.15 K) [J/K/mol] | molar heat capacity at constant pressure ([2]; 348.15 K) [J/K/mol] | further results |
| --- | --- | --- | --- | --- | --- | --- | --- | --- | --- | --- | --- | --- | --- | --- | --- | --- | --- | --- | --- | --- | --- |
| CCN(CC)CCO.Cl [2-(diethylamino)ethanol hydrochloride] + OCC(O)CO | 0.069 ± 0.001 | 0.098 ± 0.002 | 0.134 ± 0.003 | 0.175 ± 0.004 | 0.228 ± 0.005 | 0.293 ± 0.006 | 0.368 ± 0.007 | 0.456 ± 0.009 | 0.556 ± 0.011 | 0.667 ± 0.013 | 83.46 ± 3.5 | 83.96 ± 3.6 | 84.39 ± 3.6 | 85.16 ± 3.6 | 85.72 ± 3.6 | 86.36 ± 3.7 | 86.96 ± 3.7 | 87.79 ± 3.7 | 88.46 ± 3.8 | 89.09 ± 3.8 | molar heat capacity at constant pressure ([2]; 353.15 K): 89.76 ± 3.8 J/K/mol |
| CCN(CC)CCO.Cl [2-(diethylamino)ethanol hydrochloride] + OCCO | 0.47 ± 0.009 | 0.565 ± 0.011 | 0.68 ± 0.014 | 0.81 ± 0.016 | 0.96 ± 0.019 | 1.12 ± 0.02 | 1.29 ± 0.03 | 1.48 ± 0.03 | 1.68 ± 0.03 | 1.88 ± 0.04 | 68.03 ± 2.9 | 68.43 ± 2.9 | 68.83 ± 2.9 | 69.33 ± 2.9 | 69.83 ± 3 | 70.36 ± 3 | 71.03 ± 3 | 71.53 ± 3 | 72.09 ± 3.1 | 72.69 ± 3.1 | molar heat capacity at constant pressure ([2]; 353.15 K): 73.26 ± 3.1 J/K/mol |
